{"source": "patent US8741644B2", "about": "“Method for producing mast cells from pluripotent stem cells” (Kyoto University, priority 2009, dated 2014)", "test_system": "hESC-MCs", "experiment": "Activation of MCs: histamine release from hESC-MCs upon stimulation (ELISA histamine kit)", "assay_type": "cell-based, human", "conditions": "hESC (H1)-derived mast cells, 15 min at 37° C., FIG. 13", "procedure": "For stimulation, substance P (Sigma), compound 48/80 or control medium was added to a 25 μl cell suspension (4×10^5 MCs/ml) in 96-well plates, and incubated for further 15 min at 37° C. The reaction was stopped by adding 200 μl ice-cold buffer. The cells were separated by centrifugation at 300×g for 7 min at 4° C., and the supernatant was collected. The cell pellet was resuspended in […] containing 0.5% Triton-X and 0.1% bovine serum albumin (BSA), quick frozen in liquid nitrogen and thawed 4 times. After centrifugation at 12,000×g for 15 min at 4° C., the soluble extract was collected. Histamine levels were measured by an ELISA histamine kit (Beckman Coulter)", "note": "Where no end group is shown, it is not given here."}
{"substance": "substance P (RPKPQQFFGLM; ends and bridges not checked; UniProt P20366 58-68, looked up) [neuropeptide used as mast cell stimulant (Sigma)]", "values": [{"measurement": "degranulation to release histamine", "value": "dose-dependent degranulation"}]}
